Results from article PMC9856044 (Biomolecules, 2023).

What was measured:
[1] = biological target: Tel22 (5′-AGGG(TTAGGG)3–3′) G-quadruplex; assay: Fluorimetric titration with Tel22 in sodium cacodylate buffer (Na+ solution); assay type: binding, human
Description: Materials. Polynucleotides were purchased as noted: poly A–poly U, calf thymus ctDNA, poly(dAdT)2 and poly(dGdC)2 (Sigma-Aldrich, St. Louis, MI, USA). Polynucleotides were dissolved in Na-cacodylate buffer, I = 0.05 mol dm^−3, pH = 7.0. The calf thymus ctDNA was additionally sonicated and filtered through a […]. Polynucleotide concentration was determined spectroscopically as the concentration of phosphates. Spectrophotometric titrations were performed at pH = 7.0 (I = 0.05 mol dm^−3, sodium cacodylate buffer) by adding aliquots of polynucleotide solution into the solution of the studied compound for fluorimetric experiments and CD experiments were done by adding aliquots of the compound stock solution into the solution of a polynucleotide. In fluorimetric experiments, an excitation wavelength of λexc = 425, 431, 423, 427, 406 and 407 nm, respectively, was used to avoid the inner filter effect caused due to increasing absorbance of the polynucleotide. Emission was collected in the range λem = 400–700 nm. Values for Ka obtained by processing titration data using the Scatchard equation [27], all have satisfactory correlation coefficients (≥0.98).
(§1) Thermal melting curves for DNA, RNA and their complexes with studied compounds were determined as previously described by following the absorption change at 260 nm as a function of temperature. The absorbance of the ligands was subtracted from every curve and the absorbance scale was normalized. Tm values are the midpoints of the transition curves determined from the maximum of the first derivative and checked graphically by the tangent method. The ∆Tm values were calculated by subtracting Tm of the free nucleic acid from Tm of the complex. Every ∆Tm value here reported was the average of two measurements. The error in ∆Tm is ±0.5 °C. 5′-AGGG(TTAGGG)3–3′(Tel22) was obtained from IDT (Integrated DNA Technologies, Coralville, IA, USA). Tel22 was dissolved in 0.1 M either in sodium cacodylate or potassium phosphate buffer. The starting Tel22 oligonucleotide solution was first heated up to 95 °C for 10 min, then slowly cooled to 10 °C at the cooling rate of 1 °C/min to allow DNA oligonucleotide to adopt a G-quadruplex structure. The G-quadruplex structure was confirmed by thermal melting and CD spectra. The concentration of G quadruplex was expressed in terms of oligonucleotide structure. In fluorimetric titrations, aliquots of Tel 22 solution were added to the solution of ligands (c ~ 2 × 10^−7 M, in SI).
Binding constants (log Ka) and stoichiometry of complexes were calculated from the fluorimetric data using non-linear least-square program SPECFIT [46], in the concentration range that corresponded to 20–80% complex formed.

Tel22 G-quadruplex = assay: Thermal melting of Tel22 in sodium cacodylate buffer; assay type: binding, human; conditions: Tel22, r = 1.0, sodium cacodylate buffer, pH = 7.0, I = 0.1 mol dm^−3; error ± 0.5 °C
Description: as §1

MDA-MB-435S cells = assay: MTT cytotoxicity assay, MDA-MB-435S; assay type: cell-based; conditions: Homo sapiens, 72 h incubation, ± SD
Description: Human cervical carcinoma HeLa (GIBCO BRL, Invitrogen, Waltham, MA, USA), human melanoma MDA-MB-435S and human ovarian adenocarcinoma SK-OV-3 (ATCC-LGC Standards GmbH, Wesel, Germany) cell lines were purchased from indicated cell culture banks. Normal human skin fibroblasts were isolated from the upper arm of a donor at the Neurochemical Laboratory, Department of Chemistry and Biochemistry, School of Medicine, University of Zagreb. HeLa, MDA-MB-435S and fibroblasts were grown in Dulbecco’s Modified Eagle’s Medium (DMEM; Sigma-Aldrich, St. Louis, MI, USA) while the SK-OV-3 cell line was grown in McCoy’s 5A medium (Capricorn Scientific, Ebsdorfergrund, Germany). All media were supplemented with 10% fetal bovine serum (FBS; Sigma-Aldrich) and 50 I.U./mL penicillin and 50 μg/mL streptomycin. Cells were cultured in a humidified atmosphere of 5% CO2 at 37 °C and were sub-cultured every 3–4 days. HeLa, MDA-MB-435S, SK-OV-3 cells and fibroblasts were seeded in 96 well plates. Twenty-four hours later the cells were treated, in quadruplicate, with different concentrations of compounds (dissolved in DMSO, kept at 4 °C and protected from light). Following 72 h of incubation at 37 °C, the medium was aspired and modified 3-(4,5-dimethylthiazol-2-yl)-2,5-diphenyltetrazolium bromide (MTT) assay was used to determine the cytotoxic effect of the tested compounds. Three hours later, formazan crystals were dissolved in DMSO (0.17 mL/well), the plates were mechanically agitated for 20 min and the optical density at 600 nm was determined on a microtiter plate reader (Awareness Technology Inc., Palm City, FL, USA). The experiments were repeated three times.

[2] = Solubility and aggregation (UV/Vis characterization); assay type: physicochemical; conditions: sodium cacodylate buffer, I = 0.05 mol dm^−3, pH = 7.0; UV/Vis
Description: The UV/vis spectra were recorded on a Varian Cary 100 Bio spectrophotometer (Agilent, Santa Clara, CA, USA), CD spectra on JASCO J815 spectrophotometer (ABL&E Handels GmbH, Wien, Austria) and fluorescence spectra on a Varian Cary Eclipse spectrophotometer (Agilent, Santa Clara, CA, USA) at 25 °C using appropriate 1 cm path quartz cuvettes.
Studied compounds, 1–6 were soluble (c = 8 × 10^−4 mol dm^−3) in DMSO. […] Therefore, the stock solution of 2 was prepared fresh before use. The experiments were done in aqueous buffer (sodium cacodylate buffer, I = 0.05 mol dm^−3; pH = 7.0).
However, the shape of UV/Vis spectra of cyanine 2 changed with increasing concentration (calibration experiment in Figure S2 in SI). In addition to the dominant maximum at 432 nm (which most likely corresponds to the monomer form of the dye), the absorption band at 413 nm becomes more intense (Figure S2 in SI). Presumably, it corresponds to the aggregated form (H-aggregate). Based on the existence of an absorption band at 432 nm, only the monomer dye form is visible at high temperature (95 °C) (Figure S8b in SI). However, after cooling the solution to 25 °C, an additional band appears at 413 nm, which corresponds to the aggregated dye form.

poly(dAdT)2 (AT-DNA) = assay: Thermal melting of AT-DNA; assay type: binding; conditions: r [compound]/[nucleotide phosphate] = 0.1
Description: as §1
Binding abilities of 1–6 compounds were further explored by thermal melting experiments. […]

[3] = Tel22, sodium cacodylate buffer, pH = 7.0, I = 0.1 mol dm^−3, SPECFIT fit of fluorescence titration

SMILES | logKa1 (L + G ⇆ LG) [1, 3] | logKa2 (LG + G ⇆ LG2) [1, 3] | Selectivity for G-quadruplex over duplex DNA ([1]; binding affinities Tel22 vs duplex DNA, in both the Na+ and K+ solutions) | ∆Tm (Tel22 G-quadruplex) | IC50 (MDA-MB-435S cells) | Aggregation in aqueous buffer [2] | ∆Tm value (poly(dAdT)2 (AT-DNA))
CN1/C(=C/c2[se]c3ccccc3[n+]2C)Sc2ccccc21 [Compound 3, 3-methyl-2-((3-methylbenzo[d]thiazol-2(3H)-ylidene)methyl)benzo[d][1,3]selenazol-3-ium methosulphate] | 7.26 ± 0.41 | 5.93 ± 0.47 | 100 fold | 0.5 °C | 0.987 ± 0.177 µM | do not form aggregates | –
C[n+]1c(/C=C2\Sc3ccccc3N2CCCS)[se]c2ccccc21 [Compound 5, 2-((3-(3-mercaptopropyl)benzo[d]thiazol-2(3H)-ylidene)methyl)-3-methylbenzo[d][1,3]selenazol-3-ium methosulphate] | – | – | – | 2.1 °C | 37.1 ± 3.02 µM | significantly aggregate | 4 °C
